Patent publication US20090143361A1, “Pyrido[3,2-E]Pyrazines, Process For Preparing The Same, And Their Use As Inhibitors Of Phosphodiesterase 10” (ELBION GMBH, priority 2007, published 2009)

What follows are molecules tested against T1, human recombinant PDE10A (Homo sapiens, UniProt Q9Y233) (assay: Inhibition of PDE10, human recombinant PDE10A ([3H]-cAMP SPA)). Conditions: Table 7; read-out: Human PDE10 (IC50 nM).
T1 construct: made in house; host or cells: SF21 insect cells (baculovirus)
Type: biochemical
Protocol: The gene was than inserted into a baculovirus vector, ligated with the baculovirus DNA. The enzyme-protein was expressed in SF21-cells. The enzyme was isolated from these cells by harvesting the cells by a centrifugation at 200 g to collect the cells. The cells were resuspended in 50 mM Tris-HCl/5 mM MgCl2 buffer (pH=7.4) and lysed by a sonication of the cells. The cytosolic PDE10A was obtained by a centrifugation at 48000 g for 1 h in the supernatant and stored at −70° C. PDE10 activity was determined in a one step procedure in microtiterplates. […] Nonspecific activity was tested without the enzyme. The reaction was initiated by addition of the substrate solution and was carried out at 37° C. for 30 minutes. Enzymatic activity was stopped by addition of 25 μl YSi-SPA-beads (Amersham-Pharmacia). One hour later the mixture was measured in a liquid scintillation counter for microtiterplates (Microbeta Trilux). To pipette the incubation mixture a robot Biomek (Fa. Beckman) is used. […] For determination of IC50 values the Hill-plot, 2-parameter-model, was used.

T1 sequence (Q9Y233 1-779 isoform Q9Y233-1): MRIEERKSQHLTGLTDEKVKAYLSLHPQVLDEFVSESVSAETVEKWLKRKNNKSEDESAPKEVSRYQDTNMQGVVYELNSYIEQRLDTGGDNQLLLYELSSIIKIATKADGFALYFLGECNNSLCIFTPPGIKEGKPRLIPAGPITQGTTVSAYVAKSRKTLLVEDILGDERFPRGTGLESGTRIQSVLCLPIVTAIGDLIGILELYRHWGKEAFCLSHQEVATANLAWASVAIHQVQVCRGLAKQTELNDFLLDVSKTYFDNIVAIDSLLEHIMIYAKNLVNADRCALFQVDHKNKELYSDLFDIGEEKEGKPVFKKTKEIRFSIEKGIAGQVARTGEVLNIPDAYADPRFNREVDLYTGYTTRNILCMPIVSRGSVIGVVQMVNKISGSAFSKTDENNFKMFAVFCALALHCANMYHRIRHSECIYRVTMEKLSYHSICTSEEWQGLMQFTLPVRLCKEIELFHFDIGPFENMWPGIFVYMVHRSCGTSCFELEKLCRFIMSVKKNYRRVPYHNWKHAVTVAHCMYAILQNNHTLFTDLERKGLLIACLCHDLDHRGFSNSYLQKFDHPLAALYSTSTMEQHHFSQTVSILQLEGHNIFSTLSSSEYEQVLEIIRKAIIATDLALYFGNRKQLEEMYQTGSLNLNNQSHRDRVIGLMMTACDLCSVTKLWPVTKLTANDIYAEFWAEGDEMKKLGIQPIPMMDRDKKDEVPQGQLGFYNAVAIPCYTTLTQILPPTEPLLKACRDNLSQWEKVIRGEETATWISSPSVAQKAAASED

| SMILES | IC50 |
| --- | --- |
| COc1ccc2nc(C)c3c(C)nc(-c4ccc(Cl)cc4F)n3c2n1 [Example 17, 9-(4-Chloro-2-fluorophenyl)-2-methoxy-6,7-dimethylimidazo[1,5-a]pyrido[3,2-e]pyrazine] | 10 to 100 nM |
| COc1ccc2nc(C)c3c(C)nc(-c4cnc(F)c(C)c4)n3c2n1 [Example 33, 9-(6-Fluoro-5-methylpyridin-3-yl)-2-methoxy-6,7-dimethylimidazo[1,5-a]pyrido[3,2-e]pyrazine] | 10 to 100 nM |
| COc1ccc2nc(C)c3c(C(F)(F)F)nc(-c4cnccc4OC)n3c2n1 [Example 34, 2-Methoxy-9-(4-methoxypyridin-3-yl)-6-methyl-7-(trifluoromethyl)imidazo[1,5-a]pyrido[3,2-e]pyrazine] | > 100 nM |
| COc1ccc2nc(C)c3c(C(F)(F)F)nc(-c4cc(C(N)=O)ccc4F)n3c2n1 [Example 36, 4-Fluoro-3-[2-methoxy-6-methyl-7-(trifluoromethyl)imidazo[1,5-a]pyrido[3,2-e]pyrazin-9-yl]benzamide] | 10 to 100 nM |
| COc1ccc2nc(N)c3c(C(F)(F)F)nc(-c4ccccc4C)n3c2n1 [Example 38, 2-Methoxy-9-(2-methylphenyl)-7-(trifluoromethyl)imidazo[1,5-a]pyrido[3,2-e]pyrazin-6-amine] | 10 to 100 nM |
| COc1ccc2nc(NS(C)(=O)=O)c3c(C(F)(F)F)nc(-c4ccccc4C)n3c2n1 [Example 39, N-[2-Methoxy-9-(2-methylphenyl)-7-(trifluoromethyl)imidazo[1,5-a]pyrido[3,2-e]pyrazin-6-yl]methanesulfonamide] | < 10 nM |
| COc1ccc2nc(C#N)c3c(C)nc(-c4cc(Cl)ccc4Cl)n3c2n1 [Example 40, 9-(2,5-Dichlorophenyl)-2-methoxy-7-methylimidazo[1,5-a]pyrido[3,2-e]pyrazine-6-carbonitrile] | 10 to 100 nM |

Same assay, conditions: Table 8, cell marked Human PDE10; read-out: IC50 (nM) (Human PDE10)

| SMILES | IC50 |
| --- | --- |
| CCCc1nc(C)c2c(C)nc3ccc(=O)[nH]c3n12 [Example 46, 6,7-Dimethyl-9-propylimidazo[1,5-a]pyrido[3,2-e]pyrazin-2(1H)-one] | > 100 nM |

Same assay, conditions: Table 9; read-out: hPDE10 IC50

| SMILES | IC50 |
| --- | --- |
| Cc1ccccc1-c1nc(C)c2c(C)nc3ccc(OCC4CC4)nc3n12 [Example 123, 2-(cyclopropylmethoxy)-6,7-dimethyl-9-(2-methylphenyl)imidazo[1,5-a]pyrido[3,2-e]pyrazine] | < 10 nM |
| COc1ccc2nc(C)c3c(C)nc(-c4cc(F)cc(C(N)=O)c4)n3c2n1 [Example 129, 3-fluoro-5-(2-methoxy-6,7-dimethylimidazo[1,5-a]pyrido[3,2-e]pyrazin-9-yl)benzamide] | < 10 nM |
| COc1ccc2nc(C)c3c(C)nc(-c4ccc(F)c(C(N)=O)c4)n3c2n1 [Example 130, 2-fluoro-5-(2-methoxy-6,7-dimethylimidazo[1,5-a]pyrido[3,2-e]pyrazin-9-yl)benzamide] | < 10 nM |
| COc1ccc2nc(C)c3c(C)nc(-c4ccc(Cl)c(C(N)=O)c4)n3c2n1 [Example 131, 2-chloro-5-(2-methoxy-6,7-dimethylimidazo[1,5-a]pyrido[3,2-e]pyrazin-9-yl)benzamide] | 10 to 100 nM |
| COc1ccc2nc(C)c3c(C)nc(-c4ccc(C(N)=O)c(Cl)c4)n3c2n1 [Example 132, 2-chloro-4-(2-methoxy-6,7-dimethylimidazo[1,5-a]pyrido[3,2-e]pyrazin-9-yl)benzamide] | < 10 nM |
| COc1ccc2nc(C)c3c(C)nc(CC#N)n3c2n1 [Example 133, (2-Methoxy-6,7-dimethylimidazo[1,5-a]pyrido[3,2-e]pyrazin-9-yl)acetonitrile] | > 100 nM |

Each molecule was assayed against PDE10 from pig striatum (Sus scrofa, UniProt A0A287B941) (assay: Inhibition of PDE10 from pig striatum ([3H]-cAMP SPA)). Conditions: Table 8; read-out: PDE10 pig IC50.
Type: biochemical
Protocol: Phosphodiesterase isoenzyme 10 (PDE10) activity was determined in preparations of human recombinant PDE10A and PDE10 from pig striatum, respectively.
Striatum from male hybrid pigs (150 kg) were collected and frozen at −70° C.
At the day of preparation 0.5 g striatum was homogenised in 10 ml 50 mM Tris/Mg-buffer at 4° C. and centrifuged for one hour at 100000 g. The supernatant was removed and the pellet was resuspended in the same buffer, but containing 1% Triton and incubated for 45 min at 4° C. The membrane fraction was applied onto a 5 ml Hi Trap™ QHP column at the Akta-FPLC. After washing the column the bound PDE protein was eluted with an increasing sodium chloride gradient (O mM-500 mM sodium chloride) in 50 mM Tris/Mg-buffer at 4° C. in the presence of 1% Triton. […] The fractions with PDE10-activity were pooled and frozen in aliquots until use at −20° C.
(§1) PDE10 activity was determined in a one step procedure in microtiterplates. […] Nonspecific activity was tested without the enzyme. The reaction was initiated by addition of the substrate solution and was carried out at 37° C. for 30 minutes. Enzymatic activity was stopped by addition of 25 μl YSi-SPA-beads (Amersham-Pharmacia). One hour later the mixture was measured in a liquid scintillation counter for microtiterplates (Microbeta Trilux). To pipette the incubation mixture a robot Biomek (Fa. Beckman) is used. […] For determination of IC50 values the Hill-plot, 2-parameter-model, was used.
The phosphodiesterase isoenzyme 10 (PDE10) activity was determined in preparations of rat, pig and guinea pig striatum respectively. Striatum from male Wistar rats (180-200 g), male hybrid pigs (150 kg) and male guinea pigs (CRL (HA), 500 g) respectively were collected and frozen at −70° C.
At the day of preparation 0.5 g striatum was homogenized in 10 ml 50 mM Tris/Mg-buffer at 4° C. and centrifuged for one hour at 100000 g. The supernatant is called the cytosolic fraction and was removed and stored on ice. The pellet was resuspended in the same buffer, but containing 1% Triton and incubated for 45 min at 4° C. Both fractions were independently applied onto a 5 ml Hi Trap™ QHP column at the Akta-FPLC. After washing the columns the bound PDE protein was eluted with an increasing sodium chloride gradient (0 mM-500 mM sodium chloride) in 50 mM Tris/Mg-buffer at 4° C. for the cytosolic fraction and in the presence of 1% Triton for the membrane fraction. […] The fractions with PDE10-activity were pooled and frozen in aliquots until use at −20° C.
as §1, with “YSi-SPA beads” for “YSi-SPA-beads”

| SMILES | IC50 |
| --- | --- |
| COc1ccc2nc(C)c3c(C)nc(C#Cc4ccccc4Cl)n3c2n1 [Example 96, 9-[(2-Chlorophenyl)ethynyl]-2-methoxy-6,7-dimethylimidazo[1,5-a]pyrido[3,2-e]pyrazine] | 10 to 100 nM |
| COc1ccc2nc(C)c3c(C)nc(C#CC4CC4)n3c2n1 [Example 97, 9-(Cyclopropylethynyl)-2-methoxy-6,7-dimethylmidazo[1,5-a]pyrido[3,2-e]pyrazine] | 10 to 100 nM |
| COc1ccc2nc(C)c3c(C)nc(C#Cc4ccccc4OC)n3c2n1 [Example 98, 2-Methoxy-9-[(2-methoxyphenyl)ethynyl]-6,7-dimethylimidazo[1,5-a]pyrido[3,2-e]pyrazine] | > 100 nM |
| COc1ccc2nc(C)c3c(C)nc(C#Cc4ccccc4C)n3c2n1 [Example 99, 2-Methoxy-6,7-dimethyl-9-[(2-methylphenyl)ethynyl]imidazo[1,5-a]pyrido[3,2-e]pyrazine] | > 100 nM |
| CNC(=O)c1cccc(-c2nc(C)c3c(C)nc4ccc(OC)nc4n23)c1 [Example 100, 3-(2-Methoxy-6,7-dimethylimidazo[1,5-a]pyrido[3,2-e]pyrazin-9-yl)-N-methylbenzamide] | > 100 nM |
| CCNC(=O)c1cccc(-c2nc(C)c3c(C)nc4ccc(OC)nc4n23)c1 [Example 101, N-Ethyl-3-(2-methoxy-6,7-dimethylimidazo[1,5-a]pyrido[3,2-e]pyrazin-9-yl)benzamide] | 10 to 100 nM |
| CONC(=O)c1cccc(-c2nc(C)c3c(C)nc4ccc(OC)nc4n23)c1 [Example 102, N-Methoxy-3-(2-methoxy-6,7-dimethylimidazo[1,5-a]pyrido[3,2-e]pyrazin-9-yl)benzamide] | 10 to 100 nM |
| COc1ccc2nc(C)c3c(C)nc(-c4cccc(C(=O)NC(C)C)c4)n3c2n1 [Example 103, N-Isopropyl-3-(2-methoxy-6,7-dimethylimidazo[1,5-a]pyrido[3,2-e]pyrazin-9-yl)benzamide] | 10 to 100 nM |
| COc1ccc2nc(C)c3c(C)nc(-c4cccc(C(=O)N(C)C)c4)n3c2n1 [Example 104, 3-(2-Methoxy-6,7-dimethylimidazo[1,5-a]pyrido[3,2-e]pyrazin-9-yl)-N,N-dimethylbenzamide] | > 100 nM |
| COc1ccc2nc(C)c3c(C)nc(-c4cccc(C(=O)N5CCCCC5)c4)n3c2n1 [Example 105, 2-Methoxy-6,7-dimethyl-9-[3-(piperidin-1-ylcarbonyl)phenyl]imidazo[1,5-a]pyrido[3,2-e]pyrazine] | > 100 nM |
| COc1ccc2nc(C)c3c(C)nc(-c4cc(C(N)=O)ccc4F)n3c2n1 [Example 106, 4-Fluoro-3-(2-methoxy-6,7-dimethylimidazo[1,5-a]pyrido[3,2-e]pyrazin-9-yl)benzamide] | < 10 nM |
| CNC(=O)c1ccc(F)c(-c2nc(C)c3c(C)nc4ccc(OC)nc4n23)c1 [Example 107, 4-Fluoro-3-(2-methoxy-6,7-dimethylimidazo[1,5-a]pyrido[3,2-e]pyrazin-9-yl)-N-methylbenzamide] | > 100 nM |

Same assay, conditions: Table 9, cells marked pPDE10; read-out: IC50 (nM) (pPDE10)

| SMILES | IC50 |
| --- | --- |
| COc1ccc2nc(C#N)c3c(C)nc(-c4ccccc4Cl)n3c2n1 [Example 111, 9-(2-chlorophenyl)-2-methoxy-7-methylimidazo[1,5-a]pyrido[3,2-e]pyrazine-6-carbonitrile] | < 10 nM |
| COc1ccc2nc(C#N)c3c(C)nc(-c4ccc(Cl)cc4Cl)n3c2n1 [Example 112, 9-(2,4-dichlorophenyl)-2-methoxy-7-methylimidazo[1,5-a]pyrido[3,2-e]pyrazine-6-carbonitrile] | < 10 nM |
